This is an account of results in patent publication US20100311827A1, “Chlorogenic acid derivatives and their use as anti-fungal agents” (priority 2006, published 2010).

Data set [1] relates to Candida albicans (ATCC90028). The experiment in a line: Broth dilution anti-fungal susceptibility (NCCLS M27-A2), MIC. In kind it is cell-based. Conditions: for MIC: Candida albicans, MICs read at 80% inhibition; for inhibitory activity against C. albicans compared to chlorogenic acid: comparison in words, from Table 3. The procedure:
(§1) The anti-fungal activity of the compounds according to the invention were evaluated against Candida albicans (ATCC90028), Cryptococcus neoformans (ATCC32045), and Aspergillus fumigatus (ATCC13073) according to NCCLS guidelines (NCCLS reference method for broth dilution anti-fungal susceptibility testing of yeasts; approved standard-second edition, M27-A2, National Committee for Clinical Laboratory Standards, Villanova, Pa. 2003; and NCCLS reference method for broth dilution anti-fungal susceptibility testing of filamentous fungi; approved standard, M38-A, National Committee for Clinical Laboratory Standards, Villanova, Pa. 2002).
(§2) The medium required for the evaluation of anti-fungal activity was prepared as follows. RPMI 1640 broth+MOPS, pH adjusted and filter sterilized. Sabouraud Dextrose Agar (SDA) plates were used for growing fungi.
(§3) All test or candidate compounds were prepared as 5 mg/ml stock solutions in DMSO and further diluted according to the NCCLS guidelines with sterile water or appropriate diluent. A working stock of 256 μg/ml was used to prepare 1:2 serial dilutions in 96-well plates.
(§4) The inoculums of fungi were prepared by making a direct sterile water suspension of colonies/spores from SDA plates. 0.1% Tween 20 was used for A. fumigatus for better dispersal of spores in suspension. For C. albicans and C. neoformans overnight cultures were used. A. fumigatus required longer incubation. Each fungal suspension was adjusted to read between 70 and 75% transmittance at 530 nm (0.5 McFarland Standard). These suspensions were further diluted 1/1000 in appropriate broth for inoculating the 96-well plates.
(§5) All plates were incubated at 35° C. for the following times: 18 hours to 24 hours for C. albicans, 48 hours for A. fumigatus, and 48 to 72 hours for C. neoformans.

A further data set deals with brine shrimp. In kind it is in vivo. Conditions: for % BL (brine shrimp lethality): at 100 μg/ml; for toxicity on brine shrimp compared to chlorogenic acid: comparison in words, from Table 2. The procedure: The general in vitro toxicity of these compounds can be tested using the Brine Shrimp Lethality assay, as described in Mclaughlin, J. L. in Methods in Plant Biochemistry. Ed. K. Hostettmann, Academic Press, London, 1991; Vol. 6, pp. 1-32. Typically, candidate compounds are diluted in seawater to a suitable concentration and added to second instar larvae of Artemia salina. After a suitable period of time, for example 24 hours, the survivors are counted. In vitro acute toxicity testing of a compound of Formula I can also be performed using mammalian cell lines (see, for example, Ekwall, B., Ann. N.Y. Acad. Sci., (1983) 407:64-77). Selection of an appropriate cell line is dependent on the potential application of the candidate compound and can be readily determined by one skilled in the art.
To test the general toxicity of these compounds, Brine Shrimp Lethality assay was carried out according to Mclaughlin, J. L. in Methods in Plant Biochemistry. Ed. K. Hostettmann, Academic Press, London, 1991; Vol. 6, pp. 1-32. The compounds were tested at 100 μg/ml.

The subject of another data set is Candida krusei ATCC6258. The experiment in a line: Broth dilution anti-fungal susceptibility, MIC (as in Example 24). The class given is cell-based. Conditions: for MIC: Pichia kudriavzevii, ATCC6258, Table 3 (Example 26), MICs read at 80% inhibition, 0.12 to 64 μg/ml, read-out: MIC C. krusei; for inhibitory activity against C. krusei compared to chlorogenic acid: comparison in words, from Table 3.

For data set [2], the system named is Cryptococcus neoformans (ATCC32045). The experiment in a line: Broth dilution anti-fungal susceptibility (NCCLS M27-A2), MIC. The class given is cell-based. Conditions: Table 1, MICs read at 80% inhibition, 35° C., 48 to 72 hours, tested 0.12 to 64 μg/ml. The procedure: as §1, §2, §3, §4, §5
The test system of data set [3] is Aspergillus fumigatus (ATCC13073). The experiment in a line: Broth dilution anti-fungal susceptibility of filamentous fungi (NCCLS M38-A), MIC. In kind it is cell-based. Conditions: Table 1, MICs read at 80% inhibition, 35° C., 48 hours, tested 0.12 to 64 μg/ml. The procedure: as §1, §2, §3, §4, §5
Setting [4] is: ATCC90028, Table 3 (Example 26, additional testing), 0.12 to 64 μg/ml, read-out: MIC C. albicans.
The mark [5] stands for this setting: ATCC90028, Table 1, 35° C., 18 to 24 hours, tested 0.12 to 64 μg/ml.

SMILES strings stand for the structures. Converted amounts (≈) assume the structure as drawn. Where two headings read alike, the source gives them in different places.

Regarding `O=C(/C=C/c1ccc(O)c(O)c1)O[C@@H]1C[C@](O)(C(=O)O)C[C@@H](O)[C@H]1O` [Chlorogenic acid], the MIC (in data set [1] (setting [4]); in the data set with Candida krusei ATCC6258) was more than 64 µg/mL throughout. Moreover, the “% BL (brine shrimp lethality)” value in the data set on brine shrimp was determined as 100%.

For the compound `CCCCCCCCOc1ccc(NC(=O)C(NC(=O)C2(O)CC(O)C(O)C(OC(=O)/C=C/c3ccc(O)c(O)c3)C2)C(C)OC(C)(C)C)cc1` (stereo not drawn) [Compound 8], the MIC in data set [1] (setting [5]) was 2 µg/mL (≈ 2.8 µM); in data set [1] (setting [4]), 4 µg/mL (≈ 5.6 µM); in data set [2], 1 µg/mL (≈ 1.4 µM); in data set [3] it was more than 64 µg/mL; with Candida krusei ATCC6258 it was 2 µg/mL (≈ 2.8 µM). In addition, in data set [1], the “inhibitory activity against C. albicans compared to chlorogenic acid” value is “more potent inhibitory activity”. Also, the “% BL (brine shrimp lethality)” value in the data set with brine shrimp worked out at 50.0%. Moreover, the “toxicity on brine shrimp compared to chlorogenic acid” value in the data set with brine shrimp was “less toxicity”. Moreover, in the data set on Candida krusei ATCC6258, the “inhibitory activity against C. krusei compared to chlorogenic acid” value is reported as “more potent inhibitory activity”.

In the case of `CCCCCCCCOc1ccc(NC(=O)C(NC(=O)C2(O)CC(O)C(O)C(OC(=O)/C=C/c3ccc(O)c(O)c3)C2)C(C)O)cc1` (stereo not drawn) [Compound 12], the MIC is 8 µg/mL (≈ 12.1 µM) in data set [1] (setting [5]); 4 µg/mL (≈ 6.07 µM) in data set [1] (setting [4]); 2 µg/mL (≈ 3.04 µM) in data set [2]; more than 64 µg/mL in data set [3]; 2 µg/mL (≈ 3.04 µM) with Candida krusei ATCC6258. In data set [1], the “inhibitory activity against C. albicans compared to chlorogenic acid” value was “more potent inhibitory activity”. Besides, in the data set on brine shrimp, the “% BL (brine shrimp lethality)” value is reported as 12.5%. The “toxicity on brine shrimp compared to chlorogenic acid” value in the data set on brine shrimp is given as “less toxicity”. The “inhibitory activity against C. krusei compared to chlorogenic acid” value in the data set on Candida krusei ATCC6258 was “more potent inhibitory activity”.
